The source of these data is patent publication US5824647A, “Chemotactic wound healing peptides” (priority 1995, dated 1998).

For experiment [1], the system named is Human peripheral blood neutrophils. Kind of experiment: Neutrophil chemotaxis in modified Boyden chambers. To be noted: peptide in lower compartment of modified Boyden chamber. Format: cell-based. From the text:
(§1) Human peripheral blood neutrophils and monocytes, isolated from whole blood using standard techniques may also be used in the chemotaxis assays, in a manner similar to infant foreskin fibroblasts, to measure the chemotactic activity of the peptides towards inflammatory cells. Such cells may also be maintained in supplemented MEM as above, to which 5-10% FCS may be added. When using neutrophils and monocytes, instead of fibroblasts, the polycarbonate filters used in the modified Boyden chambers had pore sizes of 2 and 3 microns, respectively. As above, all assays were carried out in quadruplicate.

Experiment [2] concerns infant foreskin fibroblasts. Nature of the experiment: Fibroblast chemotaxis in modified Boyden chambers (incl. checkerboard and deactivation studies). Format: cell-based, human. Particulars: for fibroblast chemotaxis / migration (in words): peptide in lower compartment of modified Boyden chamber; for Mean Fibroblasts per 20 OIF + SEM: Experiment 1, lower compartment: TGF-β1 50 pg/ml, peptide 368-374 1.4 × 10^-5 M, peptide 364-378 6.7 × 10^-7 M, fibronectin 20 μg/ml. Here is the method: Target cells used in in vitro chemotaxis assays were infant foreskin fibroblasts obtained by establishing monolayer cultures from explants of tissue. Cells were maintained in Eagle's minimum essential medium (MEM) supplemented with non-essential amino acids, antibiotics, 50 ug/ml ascorbic acid, and 9% fetal calf serum (FCS). Cells were passaged by trypsinization every 3-5 days.
Infant foreskin fibroblasts were harvested from monolayer culture by gentle trypsinization, washed twice in serum-free Eagles's MEM and adjusted to a final concentration of 250,000 cells/ml. The cell suspension (0.4 ml) was added to the upper compartments of blind well modified Boyden chemotaxis chambers. The peptides of the invention being assayed for chemotactic activity were solubilized in glycylglycine (0.015M) buffered NaCl (0.14M), pH 7.2, hereinafter referred to as GGBS, and diluted 50% with serum-free MEM. Test substances were added to the lower compartment of the chemotaxis chambers. Gelatin-treated polycarbonate filters (8 micron pore size) were interposed between the lowest compartment and the upper cell compartment. Loaded chambers were incubated at 37° C. in a humidified atmosphere containing 5% CO2 for 150 minutes. After incubation, the chambers were disassembled, the filters removed, stained with hematoxylin, and mounted on glass cover slips. Fibroblast chemotaxis was quantitated by counting the number of fibroblasts in 20 oil immersion fields (OIF) that migrated and adhered to the lower surface of each filter. Samples were tested in quadruplicate and results are expressed as mean number of fibroblasts per 20 OIF±standard error of the mean (SEM). Chemotaxis neutralization studies were performed by adding TGF-β1 or fibronectin to the upper cell compartment and testing for effects on fibroblast migration to the TGF-β peptides.
Zigmond-Hirsch checkerboard analysis (Zigmond & Hirsch, J. Exptl. Med. 137:387, 1972) was performed to determine whether the 7-mer peptide 368-374 (Val Tyr Tyr Val Gly Arg Lys) induced chemotaxis of fibroblasts, monocytes and neutrophils.
Deactivation studies were utilized to determine whether the peptides of the invention containing the 7-mer peptide amino acid sequence induced chemotaxis via cellular receptors and mechanisms utilized by intact TGF-β.

The subject of experiment [3] is human peripheral blood monocytes. Nature of the experiment: Monocyte chemotaxis in modified Boyden chambers. Particulars: peptide in lower compartment of modified Boyden chamber. The format is cell-based.
From the text: as §1
The following 7-mer peptides (peptides 368-374, corresponding to amino acids 368-374 of human TGF-β1): VYYVGRK (SEQ ID NO. 1), LYYIGKT (SEQ ID NO. 2), LYYVGRT (SEQ ID NO. 3), IYYVGRN (SEQ ID NO. 4) and IYYVGRT (SEQ ID NO. 5) were synthesized by the Merrifield technique, purified by HPLC, and tested at different concentrations in the same assay for their ability to stimulate chemotaxis of human peripheral blood monocytes in vitro modified Boyden chambers.

The subject of experiment [4] is infant foreskin fibroblasts. Kind of experiment: Collagen production by fibroblasts (modified Peterofsky-Diegelman assay). The format is cell-based, human. To be noted: [3H]proline incorporation into collagenase-sensitive protein. How it is done:
The peptides of the invention were also found to stimulate collagen production by fibroblasts. Collagen production by fibroblasts in response to the peptides of the present invention was measured utilizing a modified Peterofsky-Diegelman assay. The assay is used to determine whether the peptides of the invention stimulate or inhibit collagen production by fibroblasts.
Low passage (4-12 subpassages) infant foreskin fibroblasts were plated out at a density of 10^5 cells/well in Falcon 3008 multiwell plates in complete maintenance medium containing 10% FCS. After cells reached confluency (72 hr), the medium was changed daily for 3 days, each time being replaced with serum-free maintenance medium containing fresh ascorbic acid. Samples (50 μl) were added to triplicate wells containing 450 μl serum-free MEM supplemented with fresh ascorbic acid and [^3 H]-proline (sp. act. 20 Ci/mmole), but no non-essential amino acids. After an additional 24 hr of culture, supernatants were reacted with protease-free bacterial collagenase to digest all collagen. Similar aliquots of unreacted supernatants and bacterial collagenase-treated supernatants were precipitated with cold 10% trichloroacetic acid (TCA) and were centrifuged for 5 minutes in a Beckman microfuge. Aliquots of the supernatants, after TCA precipitated proteins were pelleted, were placed in vials containing Hydrofluor and then were counted in a scintillation counter. CPM from TCA precipitated supernatants not reacted with bacterial collagenase were subtracted from each culture. The resulting CPM was a reflection of the collagen produced by that culture.
A modified Peterofsky-Diegelmann assay was used to screen peptide samples for their ability to stimulate or inhibit collagen production. Low passage (4-12 subpassages) infant foreskin fibroblast were plated out at a density of 10^5 cells/well of Falcon 3008 multiwell plates in complete maintenance medium containing 10% FCS. After cells reached confluency (72 hr) the medium was changed daily for 3 days, each time being replaced with serum-free maintenance medium containing fresh ascorbic acid. Samples ([…]) were added to triplicate wells containing […] serum free MEM supplemented with fresh ascorbic acid and [^3 H]-proline (sp. act. 20 Ci/mmole), but no non-essential amino acids. After an additional 24 hours of culture, supernatants were reacted with protease-free bacterial collagenase to digest all collagen. Similar aliquots of unreacted supernatants and bacterial collagenase-treated supernatants were precipitated with cold 10% trichloroacetic acid (TCA) and were centrifuged for 5 minutes in a Beckman microfuge. Aliquots of the supernatants, after TCA precipitated proteins were pelleted, were placed in vials containing Hydrofluor and then were counted in a scintillation counter. CPM from TCA precipitated supernatants not reacted with bacterial collagenase were subtracted from each culture. The resulting CPM was a reflection of the collagen produced by that culture.
Collagen production was measured following administration of the various 7-mer peptides 368-374 (SEQ ID NOs. 1-5) to fibroblasts. Peptides […] (SEQ ID NO. 1), LYYIGKT (SEQ ID NO. 2), LYYVGRT (SEQ ID NO. 3), IYYVGRN (SEQ ID NO. 4) and IYYVGRT (SEQ ID NO. 5) were synthesized by the Merrifield technique, purified by HPLC, and tested at different concentrations in the same assay for their ability to stimulate production of collagen in confluent cultures of infant foreskin fibroblasts. Collagen production was measured by incorporation of [^3 H]proline into collagenase-sensitive protein. All samples were tested in triplicate, and values represent the mean of triplicate determinations. Data are expressed as "% stimulation" of collagen production relative to control production in cultures with plain culture medium only added. […]

Where [5] appears, read: Media added to upper compartment.
[6] abbreviates: TGF-β1 (50 pg/ml) added to upper compartment.

On to “280-293: peptide derived from the N-terminal half of TGF-β1, residues 280-293 (ALDTNYCFSSTEKN; printed: Ala Leu Asp Thr Asn Tyr Cys Phe Ser Ser Thr Glu Lys Asn) [Peptide 280-293]”, for which the “neutrophil chemotaxis / migration (in words)” value in experiment [1] is “none of the peptides derived from the N-terminal half of TGF-β1 (peptides 280-293, 296-322 and 328-354) were able to induce migration”. Also, the “fibroblast chemotaxis / migration (in words)” value in experiment [2] was “none of the peptides derived from the N-terminal half of TGF-β1 (peptides 280-293, 296-322 and 328-354) were able to induce migration”. The “monocyte chemotaxis / migration (in words)” value in experiment [3] is “none of the peptides derived from the N-terminal half of TGF-β1 (peptides 280-293, 296-322 and 328-354) were able to induce migration”.

Take “296-322: peptide derived from the N-terminal half of TGF-β1, residues 296-322 (VRQLYIDFRKDLGWKWIHEPKGYHANF; printed: Val Arg Gln Leu Tyr Ile Asp Phe Arg Lys Asp Leu Gly Trp Lys Trp Ile His Glu Pro Lys Gly Tyr His Ala Asn Phe) [Peptide 296-322]”: the “neutrophil chemotaxis / migration (in words)” value in experiment [1] is “none of the peptides derived from the N-terminal half of TGF-β1 (peptides 280-293, 296-322 and 328-354) were able to induce migration”. Besides, in experiment [2], the “fibroblast chemotaxis / migration (in words)” value is “none of the peptides derived from the N-terminal half of TGF-β1 (peptides 280-293, 296-322 and 328-354) were able to induce migration”. The “monocyte chemotaxis / migration (in words)” value in experiment [3] is “none of the peptides derived from the N-terminal half of TGF-β1 (peptides 280-293, 296-322 and 328-354) were able to induce migration”.

As to “328-354: peptide derived from the N-terminal half of TGF-β1, residues 328-354 (PYIWSLDTQYSKVLALYNQHNPGASAA; printed: Pro Tyr Ile Trp Ser Leu Asp Thr Gln Tyr Ser Lys Val Leu Ala Leu Tyr Asn Gln His Asn Pro Gly Ala Ser Ala Ala) [Peptide 328-354]”, the “neutrophil chemotaxis / migration (in words)” value in experiment [1] was “none of the peptides derived from the N-terminal half of TGF-β1 (peptides 280-293, 296-322 and 328-354) were able to induce migration”. In addition, in experiment [2], the “fibroblast chemotaxis / migration (in words)” value is “none of the peptides derived from the N-terminal half of TGF-β1 (peptides 280-293, 296-322 and 328-354) were able to induce migration”. In experiment [3], the “monocyte chemotaxis / migration (in words)” value was “none of the peptides derived from the N-terminal half of TGF-β1 (peptides 280-293, 296-322 and 328-354) were able to induce migration”.

For the substance Fibronectin [reference compound], the entries for the “Mean Fibroblasts per 20 OIF + SEM” value in experiment [2] (setting [5]) and in experiment [2] (setting [6]) were 74 ± 2 Fibroblasts per 20 OIF and 71 ± 6 Fibroblasts per 20 OIF, respectively.

In the case of IYYVGRN [7-mer peptide 368-374 homolog], the “collagen production by fibroblasts (in words)” value (shortened to “collagen production”) in experiment [4] is “stimulated collagen production to some degree”. Moreover, the “fibroblast chemotaxis / migration (in words)” value in experiment [2] is on record as “induced fibroblast chemotaxis at all of the concentration tested”. In addition, the “monocyte chemotaxis / migration (in words)” value in experiment [3] was “induced monocyte chemotaxis at all of the concentrations tested”.

For IYYVGRT [7-mer peptide 368-374 homolog], the “collagen production” value in experiment [4] is reported as “stimulated collagen production to some degree”. In addition, the “fibroblast chemotaxis / migration (in words)” value in experiment [2] is listed as “induced fibroblast chemotaxis at all of the concentration tested”. In addition, the “monocyte chemotaxis / migration (in words)” value in experiment [3] was “induced monocyte chemotaxis at all of the concentrations tested”.

Take LYYVGRT [7-mer peptide 368-374 homolog]: the “collagen production” value in experiment [4] is recorded as “stimulated collagen production to some degree”. In addition, the “fibroblast chemotaxis / migration (in words)” value in experiment [2] is reported as “induced fibroblast chemotaxis at all of the concentration tested”. For the same substance, the “monocyte chemotaxis / migration (in words)” value in experiment [3] is reported as “induced monocyte chemotaxis at all of the concentrations tested”.

With “PIVYYVGRKPKVEQLSNMIVRS (PIVYYVGRKPKVEQLSNMIVRS) [Peptide 366-387]”, the “neutrophil chemotaxis / migration (in words)” value in experiment [1] is “induced migration of fibroblasts, monocytes and neutrophils in a dose dependent fashion”. In addition, in experiment [2], the “fibroblast chemotaxis / migration (in words)” value is “induced migration of fibroblasts, monocytes and neutrophils in a dose dependent fashion”. In addition, the “monocyte chemotaxis / migration (in words)” value in experiment [3] was “induced migration of fibroblasts, monocytes and neutrophils in a dose dependent fashion”.

For the substance “TGF-β1: transforming growth factor β1, 50 pg/ml, chemoattractant control and deactivating agent [reference compound]”, the results for the “Mean Fibroblasts per 20 OIF + SEM” value in experiment [2] (setting [5]) and in experiment [2] (setting [6]) were 7 ± 1 Fibroblasts per 20 OIF and 21 ± 2 Fibroblasts per 20 OIF, respectively.

As for “VPQALEPLPIVYYVGRKPKVEQLSN (VPQALEPLPIVYYVGRKPKVEQLSN) [Peptide 358-382]”, the “neutrophil chemotaxis / migration (in words)” value in experiment [1] was “induced migration of fibroblasts, monocytes and neutrophils in a dose dependent fashion”. In experiment [2], the “fibroblast chemotaxis / migration (in words)” value was “induced migration of fibroblasts, monocytes and neutrophils in a dose dependent fashion”. For the same substance, in experiment [3], the “monocyte chemotaxis / migration (in words)” value was “induced migration of fibroblasts, monocytes and neutrophils in a dose dependent fashion”.

For VSQDLEPLTILYYIGKTPKIEQLSNMIVKSC, in experiment [4], the “collagen production” value was “stimulated collagen production”.
